Measurements reported in paper PMC6323428, “Elucidation of the Intestinal Absorption Mechanism of Loganin in the Human Intestinal Caco-2 Cell Model” (Evidence-based Complementary and Alternative Medicine : eCAM, 2018).

What was measured:
Na^+/K^+pump = assay: Loganin transport across Caco-2 monolayers with Na+/K+ pump inhibitor sodium vanadate; type: in vitro ADME, human; details: pretreatment with 50 μM sodium vanadate
Protocol: (§1) Before the experiments, the human intestinal Caco-2 cell monolayers were washed twice with HBSS medium (pH 7.4). The transport experiments were conducted by adding the drug solutions (containing 1% DMSO) to either the apical (AP, 0.5 mL) or basolateral side (BL, 1.0 mL), while the receiving chamber contained the corresponding volume of blank HBSS medium. The monolayers were incubated at 37°C, and 50 μL samples were taken at 15, 30, 45, 60, 90, and 120 min from the acceptor compartment, and the volume was then immediately replaced with50 μL of fresh, prewarmed blank HBSS. TEER measurements for assessing the membrane integrity took place before and after the experiment. The samples were frozen immediately and stored below −80°C before analysis.
(§2) Several efflux and influx transporters were investigated for their effects on the transport flux of loganin. One hundred μM verapamil was added to evaluate the selectivity of P-glycoprotein (P-gp); inhibiting the efflux by multidrug resistance-associated proteins (MRPs) was undertaken by adding 100μM MK571, 50μM benzbromarone, and 200μM indomethacin [21–23]; 25 μM apigenin was used to investigate breast cancer resistance protein (BCRP); 50 μM sodium vanadate and cimetidine were used as Na^+/K^+pump and […] inhibitors.
(§3) UPLC-MS/MS data acquisition was performed using Analyst 1.5.2 and MultiQuant 2.1.1 software (Applied Biosystems). The data were analyzed by SPSS Software. The apparent permeability coefficient (Papp) was calculated according to Papp = (dQ/dt)/(A·C0)
(§4) where dQ/dt is the steady-state flux (nmol/s), A is the surface area of the insert (cm^2); C0 is the initial concentration. The efflux ratio (P) was determined by calculating the ratio of PappBA versus PappAB as in(1) P=PappBA/PappAB Statistical analysis was performed with analysis of variance (ANOVA) after confirmation of normal distributions.

Na+/K+ pump = assay: as above; type: in vitro ADME, human; details: human
Protocol: as §1, §2, §3, §4

MRP2, MRP3 = assay: Loganin transport across Caco-2 monolayers with MRP2/MRP3 inhibitor benzbromarone; type: in vitro ADME, human; parameters: key to Modulatory effect: +: Indicates that the inhibitor has significant effect on the loganin transport
Protocol: as §1, §2, §3, §4

OATs = assay: Loganin transport across Caco-2 monolayers with OATs inhibitor cimetidine; type: in vitro ADME, human
Protocol: as §1, §2, §3, §4

[1] = tested on: human intestinal Caco-2 cells; assay: MTT cytotoxicity (cell viability) assay; type: cell-based; details: for Survival Rates: n = 5, mean ± SD
Protocol: Cell viability was assessed using an MTT assay. Briefly, 0.1 mL of human intestinal Caco-2 cells was seeded onto 96-well plates at a density of 1×10^5 cells per well in a 96-well plate. The cells were grown in an atmosphere with 5% CO2 and 95% relative humidity over approximately 48 h. Subsequently, the culture medium was replaced with HBSS containing different concentrations of loganin (0.1-200 μM); the final concentration of dimethyl sulfoxide (DMSO) in HBSS remained at <1%. The negative control was HBSS containing 1% DMSO. […] Then, 0.2 mL of 0.5mg/mL MTT solution was added to each well and incubated for 4 h in dark. The medium was then removed, the MTT-formazan crystals were solubilized by incubating with 150 μL of DMSO with gentle shaking for 10 min, and absorbance was determined at 490 nm in a Multiskan Spectrum microplate reader (Thermo Labsystems, MA, USA). In each MTT assay, every sample was tested in five replicates and the viability of the nontreated control cells was arbitrarily defined as 100%.

MRPs = assay: Loganin transport across Caco-2 monolayers with MRPs inhibitor MK 571; type: in vitro ADME, human; parameters: key to Modulatory effect: +: Indicates that the inhibitor has significant effect on the loganin transport
Protocol: as §1, §2, §3, §4

[2] = parameters: method as in PMID 35540372; details: rats; cited from earlier work
[3] = Bidirectional transport across Caco-2 cell monolayers (concentration, time, pH, temperature; control without inhibitor); type: in vitro ADME, human; details: human; for Papp A→B at 60 min, 20 µM: Caco-2, pH 7.4, loganin 20 μM, AP to BL
Protocol: Cells were maintained in DMEM with 10% FBS, 1× nonessential amino acids, and 1× penicillin and streptomycin at 37°C with 5% CO2. Cells of passage 35-40 were used in this study to maintain relatively constant cellular phenotypes. The medium was replaced every 2-3 days during incubation. After reaching approximately 80% confluence, the cells were detached using 0.02% ethylenediaminetetraacetic acid (EDTA) and 0.05% trypsin at a density of 5.3×10^4 cells/cm^2 on a 60-mm plastic culture dish for the uptake experiment or a 12-mm polyester membrane insert in a 12-well plate for the permeation experiment. The media in the culture plates were changed every two days for the first week after seeding and replaced daily afterward. The integrity of the cell monolayers was examined by measuring the transepithelial electrical resistance (TEER) with a Millicell-ERS-electrode (Millipore Corp, Billerica, MA, USA). After 21-23 days, monolayers with a TEER value (TEER=[TEERtest- TEERbackground]×area) above 500Ωcm^2 were used during the transport experiments.
as §1
The loganin transport (20 μM) at 4°C and 37°C was evaluated in the AP to BL direction to investigate the effect of temperature. The effect of pH on the loganin transport (20 μM) in the AP to BL direction was studied using the following pH combinations for the HBSS in the acceptor/donor compartments: 6.0/7.4 and 7.4/7.4.
as §3, §4

[4] = Caco-2, pH 7.4, with sodium vanadate 50 μM, loganin 20 μM, n = 3
[5] = human, Caco-2, pH 7.4, with benzbromarone 50 μM, loganin 20 μM, n = 3
[6] = human, Caco-2, pH 7.4, with cimetidine 50 μM, loganin 20 μM, n = 3
[7] = human, Caco-2, pH 7.4, with MK571 100 μM, with MK 571 100 μM, loganin 20 μM, n = 3
[8] = with 100 μM MK 571, 20 μM loganin
[9] = Caco-2, pH 7.4, control, no inhibitor, loganin 20 μM, n = 3

COC(=O)C1=CO[C@@H](O[C@@H]2O[C@H](CO)[C@@H](O)[C@H](O)[C@H]2O)[C@@H]2[C@@H](C)[C@@H](O)C[C@H]12 [loganin, Loganin]
Effect on Papp values (in words) (Na^+/K^+pump): no significant effects | efflux ratio at 120 min, 20 μM (Na+/K+ pump; Caco-2, pH 7.4, with sodium vanadate 50 μM, read-out: P (efflux ratio PappBA/PappAB)): 0.73 | Papp A→B at 120 min, 20 μM (Na+/K+ pump; [4]): 12.3 ± 0.7 ×10⁻⁶ cm/s | Papp B→A at 120 min, 20 μM (Na+/K+ pump; [4]): 9 ± 1.1 ×10⁻⁶ cm/s | efflux ratio at 120 min, 20 μM (MRP2, MRP3; human, Caco-2, pH 7.4, with benzbromarone 50 μM, read-out: P (efflux ratio PappBA/PappAB)): 0.23 | Papp A→B at 120 min, 20 μM (MRP2, MRP3; [5]): 29.5 ± 5.9 ×10⁻⁶ cm/s | Papp B→A at 120 min, 20 μM (MRP2, MRP3; [5]): 6.7 ± 0.9 ×10⁻⁶ cm/s | Modulatory effect (MRP2, MRP3; with benzbromarone 50 μM): + | efflux ratio at 120 min, 20 μM (OATs; human, Caco-2, pH 7.4, with cimetidine 50 μM, read-out: P (efflux ratio PappBA/PappAB)): 0.9 | Papp A→B at 120 min, 20 μM (OATs; [6]): 11 ± 1.5 ×10⁻⁶ cm/s | Papp B→A at 120 min, 20 μM (OATs; [6]): 9.9 ± 2 ×10⁻⁶ cm/s | Effect on Papp values (in words) (OATs; pretreatment with 50 μM cimetidine): no significant effects | Survival Rates ([1]; loganin 0.1 μM, MTT): 107.66±10.9% | Survival Rates ([1]; loganin 1 μM, MTT): 108.73±25.4% | Survival Rates ([1]; loganin 5 μM, MTT): 106.57±8.3% | Survival Rates ([1]; loganin 10 μM, MTT): 106.22±10.9% | Survival Rates ([1]; loganin 50 μM, MTT): 103.45±3.3% | Survival Rates ([1]; loganin 100 μM, MTT): 101.45±6.5% | Inhibition of Caco-2 cells ([1]; loganin 200 μM, MTT): 4.67% | Survival Rates ([1]; loganin 200 μM, MTT): 95.33±5.3% | Toxicity to Caco-2 cells (in words) ([1]; loganin 0.1 to 100 μM, after 4 h exposure (so in the source)): nontoxic | Increase of transport from the apical to the basolateral side (MRPs; after addition of a MRP inhibitor (not named in the abstract), vs control): 2.09 fold | Papp A→B at 120 min, 20 μM (MRPs; [7]): 27.2 ± 4.1 ×10⁻⁶ cm/s | Papp B→A at 120 min, 20 μM (MRPs; [7]): 3.9 ± 0.2 ×10⁻⁶ cm/s | efflux ratio at 120 min, 20 μM (MRPs; human, Caco-2, pH 7.4, with MK571 100 μM, with MK 571 100 μM, read-out: P (efflux ratio PappBA/PappAB)): 0.14 | PappAB relative to control group (MRPs; [8]): ~2 fold | Reduction of PappBA vs control (MRPs; [8]): 66.7% | Modulatory effect (MRPs; with MK 571 100 μM): + | Oral bioavailability (in words) [2]: low | Papp A→B at 60 min, 20 µM ([3]; 4°C): 7.12 ×10⁻⁶ cm/s | Papp A→B at 60 min, 20 µM ([3]; 37°C): 11.3 ×10⁻⁶ cm/s | Papp A→B at 120 min, 20 μM [3, 9]: 13 ± 0.7 ×10⁻⁶ cm/s | Papp B→A at 120 min, 20 μM [3, 9]: 11.7 ± 0.9 ×10⁻⁶ cm/s | efflux ratio at 120 min, 20 μM ([3]; Caco-2, pH 7.4, control, no inhibitor, loganin 20 μM, read-out: P (efflux ratio PappBA/PappAB)): 0.9 | Papp A→B at 120 min ([3]; Caco-2, pH 7.4, range over 5, 20, 40 and 80 μM loganin, read-out: Absorptive permeability PappAB (AP to BL)): 12.2 to 14.8 ×10⁻⁶ cm/s | Papp B→A at 120 min ([3]; Caco-2, pH 7.4, range over 5, 20, 40 and 80 μM loganin, read-out: Secretory permeability PappBA (BL to AP)): 11.1 to 13 ×10⁻⁶ cm/s
